Where no end group is shown, it is not given here.
What was measured:
[1] = Solubility of purified baboon lung SP-A; type: physicochemical
TLR4 = TLR4 expression in SW480 cells by immunocytochemistry / confocal microscopy; type: cell-based, human; settings: LPS 4 hours then SPA4 1 hour, more pronounced with 100 μM
Description: Expression of TLR4: Next, the effect of SPA4 peptide on the expression of TLR4 in SW480 cells was investigated by immunocytochemistry and laser confocal microscopy. Briefly, about 2.5×10^4 cells were seeded in an 8-well chamber slide (Thermo Fisher Scientific, Rochester, N.Y.) in complete medium. The cells were treated with E. coli O111:B4-derived, highly-purified, low-protein LPS (100 ng/ml or 1.0 μg/ml; Calbiochem, CA) for 4 hours following 1 hour incubation with SPA4 peptide (1, 10 and 100 μM). The cells were fixed in 3.5% paraformaldehyde in Dulbecco's PBS (DPBS) and permeabilized with 0.05% saponin solution (Inaba et al. 1998). The wells were washed with DPBS supplemented with 1% FBS and 0.05% saponin, and stained with TLR4-specific antibody (1:50 dilution, Abcam, Mass.) and 10 μg/ml Alexa-fluor 488-labeled secondary anti-rabbit IgG antibody (Invitrogen-Molecular Probes, CA). After washing, the cells were stained with 100 nM rhodamin-phallodin (Cytoskeleton Inc, CO) and 1 μg/ml Hoechst 33342 dyes (Invitrogen-Molecular Probes, CA). Confocal microscopic images were acquired at the Imaging core facility of the Oklahoma Medical Research Foundation, Oklahoma City, using the Zeiss LSM-510 META laser scanning confocal microscope. Images were acquired with lens objective of 63× with the x/y stack sizes being 146.2 μm using band pass filter specifications at 435-485, 560-615 and 505-530.

[2] = test system: NF-κB pathway molecules (IKBα, phosphorylated IKBα, p65, phosphorylated p65, RelB, COX-2); assay: Expression of NF-κB pathway molecules in SW480 cell lysates by immunoblotting; type: cell-based, human
Description: Expression of NF-κB pathway molecules by immunoblotting: The expression of NF-κB pathway molecules (inhibitor kappa-Bα: IKBα, phosphorylated IKBα, p65, phosphorylated p65, RelB and COX-2) in SW480 cell-lysates treated with LPS±SPA4 peptide was studied by immunoblotting. For the immunoblotting, 10 μg of total cell-lysate proteins were fractionated on Novex 4-20% Tris-glycine gradient SDS-PAGE gel (Invitrogen, Carlsbad, Calif.) by electrophoresis. Separated proteins were electro-transferred onto a nitrocellulose membrane using iBlot gel transfer device (Invitrogen, Carlsbad, Calif.). The non-specific sites were blocked by incubating the membrane with 7% skimmed milk in Tris-buffered saline with 0.4% TWEEN®-20 (TBST) for 1 hour at room temperature. The blocked membranes were incubated overnight at 4° C. with 1:1000 diluted anti-human antibodies against NF-κB canonical pathway molecules: phosphorylated inhibitor kappa-Bα (IKBα), total-IKBα, p65, RelB (Cell Signaling Technology, Inc., Danvers, Mass.), phosphorylated p65 (Santacruz Biotech, Inc., Santa Cruz, Calif.) and cyclooxygenase-2 (COX-2; Santacruz Biotech, Inc., Santa Cruz, Calif.). The membranes were washed with TBST and incubated at room temperature for 45 minutes with 1:3500 diluted horse-radish peroxidase (HRP)-conjugated-secondary antibody (Sigma-Aldrich, St. Louis, Mo.). The immunoreactive bands were detected by Super Signal West Femto detection reagent (Thermo Fisher Scientific, Barrington, Ill.). In order to ensure equal protein loading in the wells, the membranes were stripped of probing antibodies at 60° C. for 45 minutes using a stripping solution containing 10% SDS, 0.5 M Tris and […] (35 μl/ml), and re-probed with anti-actin antibody (Sigma-Aldrich, MO; 1:1000 in TBST). The immunoblots were imaged using the Ultraquant image acquisition program (UltraLum Inc., Claremont, Calif.). The densitometric readings were obtained for immunoreactive bands with Image J 1.42 q program (NIH, USA). Finally, arbitrary densitometric values for proteins of interest were normalized with those of β-actin.

JAWS II dendritic cells = assay: LPS-induced TNF-α release by JAWS II dendritic cells (ELISA); type: cell-based, mouse; settings: for LPS-induced TNF-α, mean values: post-LPS model
Description: JAWS II dendritic cell culture: The JAWS II dendritic cell line is an immortalized cell line derived from bone marrow of C57BL/6 mice (ATCC, Manassas, Va.). The cells were maintained in Alpha-modified minimum essential medium (Sigma, St Louis, Mo.) supplemented with 20% fetal bovine serum (FBS), 4 mM L-glutamine, 100 U/ml penicillin, 100 μg/ml streptomycin, 50 μg/ml gentamicin (Invitrogen, Grand Island, N.Y.) and 5 ng/ml of recombinant murine granulocyte macrophage-colony stimulating factor (Peprotech, Rocky Hill, N.J.). (Awasthi et al., 2005). The culture medium was replaced with fresh medium every 48 h.
The JAWS II dendritic cells (1 million) were treated with SP-A peptides (1 or 10 μM) with or without E. coli derived LPS (75 ng/ml, highly purified, low protein, Calbiochem, CA). In order to observe the anti-inflammatory properties of the SP-A peptides, the cells were treated with peptides for 1 hour prior to addition of LPS (pre-LPS treatment) or after 4 hours incubation with LPS (Post-LPS treatment). The incubation was continued for a total period of 5 hours. Control cells were treated with vehicle, LPS (75 ng/ml), and/or SP-A peptides (1 and 10 μM) for a period of 5 hours. The cell-free supernatants were collected and stored at −80° C. for further analysis.
Cytokine (TNF-α) measurement: The TNF-α levels were measured in cell-free supernatants of JAWS II dendritic cells treated with LPS with or without SP-A peptides by enzyme linked immunosorbent assay (ELISA) as described earlier (Awasthi and Cox, 2003).

Substance | solubility [1] | LPS-stimulated TLR4 expression (TLR4) | expression of RelB ([2]; LPS-challenged) | expression of phosphorylated IKBα ([2]; LPS-challenged) | expression of COX-2, short-term treatment ([2]; LPS-challenged, 5 hours model) | expression of phosphorylated p65, short-term treatment ([2]; LPS-challenged, 5 hours model) | expression of total IKBα, short-term treatment ([2]; LPS-challenged, 5 hours model) | expression of COX-2, long-term treatment ([2]; LPS-challenged, 9 hours model) | expression of phosphorylated p65, long-term treatment ([2]; LPS-challenged, 9 hours model) | expression of total IKBα, long-term treatment ([2]; LPS-challenged, 9 hours model) | expression of NF-κB signaling molecules, SPA4 peptide alone ([2]; no LPS) | secretion of TNF-α, post-LPS model (JAWS II dendritic cells; peptide added after 4 hours LPS 75 ng/ml, both 1 and 10 μM) | LPS-induced TNF-α, mean values (JAWS II dendritic cells; 1 μM peptide) | LPS-induced TNF-α, mean values (JAWS II dendritic cells; 10 μM peptide)
SP-A: native surfactant protein-A purified from bronchioalveolar lavage fluid of a normal healthy adult baboon (MWLCPLALTLTLMAASGAACEVKDVCVGSPGIPGTPGSHGLPGRDGRDGVKGDPGPP; listed as Papio cynocephalus) | 51% |  |  |  |  |  |  |  |  |  |  |  |  | 
GDFRYSDGTPVNYTNWYRGE [SPA4, GDFRYSDGT PVNYTNWYRGE] |  | reduced the LPS-stimulated TLR4 expression to basal level | No effect | No effect | decrease | decrease | increase | remained low | remained low | decreased | did not affect the expression of any of the NF-κB signaling molecules studied, except for COX-2 | inhibited the secretion of TNF-α | 6448 pg/mL | 6101 pg/mL
